{"source": "patent US20230391729A1", "about": "“SUCCINATE SALTS OF N-(3-(4-(3-(DIISOBUTYLAMINO)PROPYL)PIPERAZIN-1-YL)PROPYL)-1H-BENZO[D]IMIDAZOL-2-AMINE, PREPARATION THEREOF AND USE OF THE SAME” (ALZPROTECT, priority 2020, published 2023)", "system": "dopaminergic (TH positive) neurons", "test": "Survival and neurite network of TH(+) mesencephalic neurons after MPP+ injury", "assay_type": "cell-based, rat", "conditions": "MPP+ 4 μM 48 h; 50 nM dose", "procedure": "Rat dopaminergic neurons were cultured as described by Visanji et al. in FASEB J. 2008, 22(7): 2488-2497 and Callizot et al., in Plos One 2019: https://doi.org/10.1371/journal.pone.0215277. Briefly, pregnant female rat (Wistar) of 15 days of gestation were killed using a deep anesthesia with CO2 chamber and a cervical dislocation. The midbrains obtained from 15-day-old rat embryos (Janvier, France) were dissected under a microscope. The embryonic midbrains were removed and placed in ice-cold medium of Leibovitz (L15) containing 2% of Penicillin-Streptomycin (PS) and 1% of BSA. The ventral portion of the mesencephalic flexure, a region of the developing brain rich in dopaminergic neurons, were used for the cell preparations. The midbrains were dissociated by trypsinization for 20 min at 37° C. (solution at a final concentration of 0.05% trypsin and 0.02% EDTA). The reaction was stopped by the addition of DMEM containing DNAase I grade II (0.5 mg/mL) and 10% of FCS. […] Viable cells were counted in a Neubauer cytometer using the trypan blue exclusion test. […]\nThe following read-outs were investigated: • neuron survival: total number of TH neurons (TH staining), • neurite network: total length of neurite network of TH positive neurons (in μm) • α-syn aggregation (area of overlapping between TH and α-syn staining in μm^2) […]"}
{"substance": "N-(3-(4-(3-(diisobutylamino)propyl)piperazin-1-yl)propyl)-1H-benzo[d]imidazol-2-amine sesqui-succinate salt [sesqui-succinate salt Form 1]", "values": [{"measurement": "neurite network of TH positive neurons", "value": "significantly improved"}, {"measurement": "neuron survival: total number of TH neurons", "value": "neuroprotective"}]}
